Measured values: patent US20240041878A1, “APELIN RECEPTOR MODULATORS FOR TREATMENT OF A DISORDER OR DISEASE ASSOCIATED WITH BBB PERMEABILITY” (BioAge Labs, Inc., priority 2022, published 2024)

How the values were obtained:
[1] = tested on: apelin receptor (APJ) signaling in astrocytes; assay: Western blot of APJ, p-AKT and t-AKT in astrocytes; type: cell-based, mouse
Procedure: To stimulate astrocytes into a reactive state found in aging and neurodegenerative diseases per previous publications (Liddelow et al., 2017; Barbar et al., 2020), a combination of the cytokines TNF-α and IL-1α, and complement factor C1q, were added at 30 ng/mL, 3 ng/mL, and 400 ng/mL, respectively, into astrocyte culture media to make ‘reactive astrocyte cocktail’ (RAC) media. Astrocytes were cultured in RAC media for 24 hours, with or without various concentrations of BGE-105 (10 nM, 50 nM, 250 nM final concentration), (Pyr^1)-Apelin-13 (50 nM; Bachem, Cat. #4029110), BAY-11-7082 (50 μM; Abcam, Cat. #ab141228) or equal volume of vehicle (0.01% DMSO in PBS) (hereafter referred to as ‘RAC treatment’). Cells in Groups 3-6 were treated with RAC for 24 hours, with or without the test compounds (n=4 per group). • Group 1: Control [CON] • Group 2: CON+BGE-105 (50 nM) [CON+105] • Group 3: Reactive control treated with RAC only [RAC] • Group 4: RAC+BGE-105 (50 nM) [RAC+105] • Group 5: RAC+Pyrm-Apelin-13 (50 nM) • Group 6: RAC+BAY-11-7082 (NF-κB inhibitor; 50 μM) [RAC+BAY]
Mice were handled in accordance with principles and guidelines established by the “Guide for the Care and Use of Laboratory Animals” and overseen by the BioAge Lab's Institutional Animal Care and Use Committee (IACUC). Mouse primary astrocytes were isolated and cultured in 0.01% poly-L-lysine coated 6- or 12-well tissue culture plates at 200,000 or 120,000 cells/well, respectively, with astrocyte growth media as previously described in (Lundquist et al. 2022. Knockdown of Astrocytic Monocarboxylate Transporter 4 in the Motor Cortex Leads to Loss of Dendritic Spines and a Deficit in Motor Learning. Mol Neurobiol 59, 1002-1017). […]
For analysis of astrocyte protein expression, cells were washed after RAC treatment with PBS and lysed with Neuronal Protein Extraction Reagent (Thermo Scientific, Cat. #87792), centrifuged to pellet debris, and supernatant was transferred to a new tube. Total protein concentration was measured by BCA protein assay (Thermo Scientific, Cat. #PI23227).

Mouse primary astrocytes = assay: Proteome Profiler Mouse Cytokine Array of astrocyte culture supernatant; type: cell-based; details: RAC+BGE-105 [50 nM and 250 nM] versus RAC
Procedure: To stimulate astrocytes into a reactive state found in aging and neurodegenerative diseases per previous publications (Liddelow et al., 2017; Barbar et al., 2020), a combination of the cytokines TNF-α and IL-1α, and complement factor C1q, were added at 30 ng/mL, 3 ng/mL, and 400 ng/mL, respectively, into astrocyte culture media to make ‘reactive astrocyte cocktail’ (RAC) media. […] Bachem, Cat. #4029110), BAY-11-7082 (50 μM; Abcam, Cat. #ab141228) or equal volume of vehicle (0.01% DMSO in PBS) (hereafter referred to as ‘RAC treatment’). […] To assess a panel of cytokines and chemokines, cell culture supernatant was diluted 1:10 and assayed using the Proteome Profiler Mouse Cytokine Array Kit, Panel A (R&D Systems, Cat. #ARY006) per manufacturer's protocol. Dot blots were analyzed in Fiji (Schindelin et al. 2012. Fiji: an open-source platform for biological-image analysis. Nat Methods 9, 676-682) and transcription factor enrichment was performed with Enrichr (Chen, et al. 2013. Enrichr: interactive and collaborative HTML5 gene list enrichment analysis tool. BMC Bioinformatics 14, 128).

Mouse astrocyte cells = assay: CXCL1 and IL-6 ELISA of astrocyte culture media after RAC treatment; type: cell-based; details: RAC+BGE-105 250 nM
wildtype motor neurons = assay: Neurons exposed to SOD1^G93A astrocyte-conditioned media or co-cultured with SOD1^G93A astrocytes; type: cell-based, mouse
Procedure: This study conducts co-culture experiments using SOD1^G93A astrocytes and wildtype motor neurons to determine effects of apelin signaling on rescue of neuronal survival and function. Co-culture experiments are conducted by measuring viability, neuronal homeostasis, and morphological endpoints.
Neurons are isolated from mouse spinal cords as previously described in Example 12 above. Non-astrocytic flowthrough following column-based cell isolation (MACS) are collected and cultured in serum-free, neuron-selective media in 12- or 96-well plates for at least 14 days before experimentation. For specific selection of spinal cord motor neurons, wildtype C57BL/6J mouse PNDO or adult spinal cords are processed using published methods (Beaudet, 2015).
Neurons are cultured for at least 14 days before the start of experimentation. First, ACM from wildtype or SOD astrocytes exposed to 250 nM BGE-105 (or vehicle) are added to neurons seeded in 96 well plates for 6, 12, 24, or 48 hours followed by analysis of neuronal survival using the ApoTox-Glo Triplex kit (Promega) to determine optimal exposure time. […]

[2] = RAC+BGE-105 [50 nM] versus CON and RAC

Q: How did the “increase of p-AKT expression level, as compared to t-AKT, normalized with β-actin” value ([1]; RAC+BGE-105 [50 nM]) turn out when `COc1cccc(OC)c1-n1c(NS(=O)(=O)[C@@H](C)[C@H](C)c2ncc(C)cn2)nnc1-c1cncc(C)c1` [BGE-105, (2S,3R)—N-(4-(2,6-dimethoxyphenyl)-5-(5-methyl-3-pyridinyl)-4H-1,2,4-triazol-3-yl)-3-(5-methyl-2-pyrimidinyl)-2-butanesulfonamide] was run?
A: about 2 folds

Q: And the “APJ protein expression normalized with β-actin” value [1, 2]?
A: No significant fold change

Q: What about the t-AKT expression [1, 2] of the same compound?
A: remained comparable

Q: And the “cytokine and chemokine release (array panel)” value (Mouse primary astrocytes)?
A: significantly reduced

Q: And the “CXCL1 concentration/release (FIG. 12)” value (Mouse astrocyte cells)?
A: 20000 to 40000 pg/mL

Q: And the “IL-6 concentration/release (FIG. 12)” value (Mouse astrocyte cells)?
A: about 10000 pg/ml

Q: What about the “neuron cell death caused by SOD1^G93A ACM” value (wildtype motor neurons; pretreatment of SOD1^G93A astrocytes with 250 nM BGE-105) of the same compound?
A: attenuated

Q: What about the “synaptic protein expression and neuronal structural integrity” value (wildtype motor neurons; wildtype neurons cultured with SOD1^G93A astrocytes, 250 nM BGE-105) of the same compound?
A: preserves synaptic protein expression and neuronal structural integrity
